How the values were obtained:
Assay in all cases: Laboratory disinfection efficacy test (suspension, pour plate count)
Format in all cases: cell-based
[1] = tested on: Staphylococcus aureus strain ATCC 6538; conditions: 15 seconds (ethanol trials) or 1 minute to 30 minutes
Description: (§1) The inoculum level for each of the test microorganisms were established in a similar manner. Test strains were grown individually at 35° C. for 24 hr. The cells were harvested by centrifugation at 10,000×g for 10 minutes and washed twice with Butterfield's Phosphate Buffer (BPB of pH 7.2). The cells were resuspended in the Butterfield's Phosphate Buffer to obtain a cell suspension of approximately 1.0×10^8 CFU/mL for each microorganism (target inoculum levels were approx. 10^6 in the final test solution).
(§2) The test microorganisms considered were tested at uniform sampling intervals, The sampling intervals selected were (a) 15 seconds (ethanol trials only), (b) 1 minute, (c) 5 minutes, (d) 10 minutes and (e) 30 minutes.
(§3) Five compounds were tested against the test microorganisms.
(§4) The test microorganisms were tested in accordance with the following test procedures. Duplicate trials were conducted for each test variable. Ninety nine volumes of the test solutions in 250 mL Erlenmeyer flasks were prepared from sterilized deionized water. The solutions were inoculated separately with one mL of 24 hour culture from each of the test strains to yield a flask inoculum level of approximately 1.0×10^6 CFU/mL.
(§5) Solutions were mixed well and kept under constant agitation. Samples of 1.0 mL were removed at the above specified time intervals and placed into 9.0 mL Neutralization Broth media (Difco) to yield an initial dilution of 1:10. All samples were serially diluted in the Butterfield's Phosphate Buffer solution (BPB) and plated onto Tryptic Soy Agar (TSA) in duplicate using the pour plate technique. Percent reductions were calculated for each test solution against each test strain.
(§6) For all tests which utilized either copper or silver ions, concentrated solutions were prepared 24 hours prior to the beginning of the study. Solutions were filtered and determinations for ion content were made. From these stock solutions (copper ion concentration as measured by ICAP and silver ion concentration as measured by Atomic Absorption analysis), final working solutions were made. The target ion concentration for both copper and silver was 5.0 mg/L.

[2] = tested on: pseudomonas aeruginosa strain ATCC 15442; conditions: 15 seconds (ethanol trials) or 1 minute to 30 minutes
Description: as §1, §2, §3, §4, §5, §6

[3] = tested on: Salmonella cholerasuis strain ATCC 10708
Description: as §1, §2, §3, §4, §5, §6

Structure (SMILES) | disinfection effectiveness [1] | disinfection effectiveness [2] | log10 reduction ([3]; 1 minute contact) [log10] | disinfection ([3]; after 30 minutes of contact time) | disinfection effectiveness ([3]; all time periods up to 30 minutes) | log10 reduction ([3]; 30 minute time period) [log10]
CCO [20% ethanol, ethanol] | No significant reduction | no significant reduction | ~1.0 | Near complete disinfection | slow, but complete disinfection | 
O=C(O)CC(O)(CC(=O)O)C(=O)O [citric acid] | Neither citric acid nor copper:citric acid was effective | no significant reduction |  |  |  | 1.0
